According to patent US4908314A (priority 1987, dated 1990):

Tests used:
[1] = target: protein C activator of the present invention (Agkistrodon contortrix contortrix, UniProt P09872); experiment: biochemical; format: biochemical
[2] = tested on: protein C activator of the present invention; experiment: biochemical; format: biochemical, Agkistrodon contortrix contortrix
Protac® = settings: cited from earlier work
[3] = tested on: protein C activator of Klein et al; settings: cited from earlier work
[4] = Amidolysis of chromogenic substrates; format: biochemical
[5] = tested on: plasminogen activator inhibitor (PAI); experiment: Neutralization of plasminogen activator inhibitor activity in vitro; format: biochemical
Factor VIIIa = target: T1, Factor VIIIa (Homo sapiens, UniProt P00451); experiment: Inactivation of Factor VIIIa in vitro; format: biochemical; settings: picomolar concentrations
T1 sequence (P00451 20-391 limits assumed): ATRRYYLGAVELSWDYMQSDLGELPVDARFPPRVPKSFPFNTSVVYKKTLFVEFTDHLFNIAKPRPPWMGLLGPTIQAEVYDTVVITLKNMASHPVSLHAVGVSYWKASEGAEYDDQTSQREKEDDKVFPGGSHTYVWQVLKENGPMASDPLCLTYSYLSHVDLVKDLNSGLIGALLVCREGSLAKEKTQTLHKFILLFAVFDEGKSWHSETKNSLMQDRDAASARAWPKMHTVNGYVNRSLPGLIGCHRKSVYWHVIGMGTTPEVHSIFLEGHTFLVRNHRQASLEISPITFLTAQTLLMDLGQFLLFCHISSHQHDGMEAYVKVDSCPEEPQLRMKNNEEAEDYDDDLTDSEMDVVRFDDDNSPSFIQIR
T1 sequence (P00451 392-759 limits assumed): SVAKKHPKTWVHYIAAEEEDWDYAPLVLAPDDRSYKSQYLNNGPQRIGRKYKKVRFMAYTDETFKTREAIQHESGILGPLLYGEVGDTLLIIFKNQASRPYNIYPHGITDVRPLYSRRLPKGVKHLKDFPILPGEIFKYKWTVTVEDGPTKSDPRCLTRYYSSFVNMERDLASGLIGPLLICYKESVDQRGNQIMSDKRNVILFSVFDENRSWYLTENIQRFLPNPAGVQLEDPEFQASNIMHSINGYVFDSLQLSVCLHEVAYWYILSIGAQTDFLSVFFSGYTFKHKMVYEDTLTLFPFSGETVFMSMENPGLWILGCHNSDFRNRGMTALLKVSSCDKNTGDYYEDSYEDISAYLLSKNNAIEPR
T1 sequence (P00451 1709-2351 limits assumed): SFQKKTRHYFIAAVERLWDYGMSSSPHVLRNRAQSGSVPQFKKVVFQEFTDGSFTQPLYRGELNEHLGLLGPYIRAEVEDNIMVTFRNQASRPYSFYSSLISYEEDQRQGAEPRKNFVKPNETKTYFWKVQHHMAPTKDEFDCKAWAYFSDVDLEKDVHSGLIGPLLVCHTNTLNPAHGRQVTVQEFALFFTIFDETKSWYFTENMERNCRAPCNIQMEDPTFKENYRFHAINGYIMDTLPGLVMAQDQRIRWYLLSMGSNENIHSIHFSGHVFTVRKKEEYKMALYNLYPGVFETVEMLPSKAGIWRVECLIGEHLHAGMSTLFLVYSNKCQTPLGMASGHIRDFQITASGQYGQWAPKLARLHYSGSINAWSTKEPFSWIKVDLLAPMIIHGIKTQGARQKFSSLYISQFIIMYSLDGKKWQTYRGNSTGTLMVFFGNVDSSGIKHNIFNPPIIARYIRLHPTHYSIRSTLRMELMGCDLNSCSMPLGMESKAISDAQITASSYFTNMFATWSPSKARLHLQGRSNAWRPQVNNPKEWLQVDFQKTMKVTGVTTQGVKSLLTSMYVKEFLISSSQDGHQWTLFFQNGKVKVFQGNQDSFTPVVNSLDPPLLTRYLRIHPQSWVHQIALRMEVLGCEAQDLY

Sequence of protein C activator of the present invention (Agkistrodon contortrix contortrix, UniProt P09872) (P09872 whole entry, looked up): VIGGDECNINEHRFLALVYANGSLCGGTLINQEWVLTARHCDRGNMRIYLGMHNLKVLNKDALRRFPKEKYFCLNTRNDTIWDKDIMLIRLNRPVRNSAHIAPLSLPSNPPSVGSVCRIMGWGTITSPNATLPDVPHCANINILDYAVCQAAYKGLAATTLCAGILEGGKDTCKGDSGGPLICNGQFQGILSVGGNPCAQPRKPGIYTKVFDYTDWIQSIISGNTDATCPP

NC(N)=NCCC[C@H](NC(=O)[C@@H]1CCCN1C(=O)[C@H](N)Cc1ccccc1)C(=O)CCl [D-Phe-Pro-Arg-chloromethylketone]
Inhibition of activity of the activator by serine protease inhibitors [1]: inhibited
Ki [1]: 34 µM
fold higher Ki than the Ki of thrombin inhibition [2]: approximately 500 fold

NC(=O)CI [iodoacetamide]
Inhibition of activity of Protac (Protac®): not inhibited

N=C(N)Nc1ccc(C(=O)Oc2ccc([N+](=O)[O-])cc2)cc1 [p-nitrophenyl, p-guanidinobenzoate]
Inhibition of activity of the activator by serine protease inhibitors [1]: inhibited

O=S(=O)(F)Cc1ccccc1 [phenylmethylsulphonylfluoride]
Inhibition of activity of the activator by serine protease inhibitors [1]: inhibited

Antithrombin III
Inhibition of activity of the Klein et al activator [3]: no effect

activated protein C
activity of amidolysis of chromogenic substrates compared with thrombin-activated protein C [4]: approximately the same activity
neutralization of PAI activity [5]: neutralization
inactivation of Factor VIIIa (Factor VIIIa): rapid inactivation

B1: soybean trypsin inhibitor: serine protease inhibitor protein (protein, UniProt P01070 25-205, looked up)
Trypsin inhibitor A: DFVLDNEGNPLENGGTYYILSDITAFGGIRAAPTGNERCPLTVVQSRNELDKGIGTIISSPYRIRFIAEGHPLSLKFDSFAVIMLCVGIPTEWSVVEDLPEGPAVKIGENKDAMDGWFRLERVSDDEFNNYKLVFCPQQAEDDKCGDIGISIDHDDGTRRLVVSKNKPLVVQFQKLDKESL
Inhibition of activity of the activator by serine protease inhibitors [1]: inhibited
Inhibition of activity of the Klein et al activator [3]: inhibited
